Data from patent US20070026079A1, “Intranasal administration of modulators of hypothalamic ATP-sensitive potassium channels” (priority 2005, published 2007).

Key:
central KATP channels = assay: ICV infusion of diazoxide with pancreatic-insulin clamp (1 mU/kg.min) in conscious rats; format: in vivo, Sprague-Dawley rats
Excerpt: (§1) Animal preparation for the in vivo experiments. Rats. Eighty-nine 10-week-old male Sprague-Dawley rats (Charles River Breeding Laboratories, Wilmington, Mass.) were studied. Rats were housed in individual cages and subjected to a standard light-dark cycle. Three weeks prior to the in vivo studies, chronic catheters were implanted in the third cerebral ventricle (Obici et al., 2003; Liu et al., 1998) or intrahypothalamically (Morton et al., 2003) (IH) by stereotaxic surgery. One week before the pancreatic-insulin clamp protocols, rats received additional catheters in the right internal jugular and left carotid artery (FIG. 5) (Obici et al., 2003; Liu et al., 1998).
(§2) In vivo studies. For the studies in rats, the metabolic experiments were performed ˜3 weeks after stereotaxic surgery following complete recovery from the operation (FIG. 5). All solutions were diluted with artificial cerebral spinal fluid (aCSF). […] Pancreatic-insulin clamp studies were performed as previously described (Liu et al., 1998). Euglycemic-hyperinsulinemic clamps in conscious, unrestrained, catheterized mice were performed for 90 min as previously described (Obici et al., 2003; Liu et al., 1998).
(§3) Hepatic alucose fluxes. Rate of hepatic glucose fluxes was determined as described. Barzilai et al., 1997).

[1] = tested on: KATP channels within the medial hypothalamus; assay: Intrahypothalamic (IH) infusion of diazoxide or insulin with pancreatic-insulin clamp in rats; format: in vivo, Sprague-Dawley rats; settings: for rate of glucose infusion required to prevent hypoglycemia: IH infusion during pancreatic clamp, vs vehicle; for blood glucose levels / glucose production (GP): IH infusion; for blood glucose levels: bilateral, medial hypothalamus, fifteen-fold lower dose than ICV; for glucose production (GP): basal circulating insulin
Excerpt: as §1, with “1998). In vivo studies. For the studies in rats, the metabolic experiments were performed ˜3 weeks after stereotaxic surgery following complete recovery from the operation (FIG. 5). All solutions were diluted with artificial cerebral spinal fluid (aCSF). […] Pancreatic-insulin clamp studies were performed as previously described (Liu et al., 1998). Euglycemic-hyperinsulinemic clamps in conscious, unrestrained, catheterized […] were performed for 90 min as previously described (Obici et al., 2003; Liu et al., 1998).” for “1998).”

[2] = tested on: hypothalamic KATP channels; assay: Central insulin or diazoxide in rats on a high fat diet for three days (hepatic insulin resistance); format: in vivo; settings: basal plasma insulin (20 μU/ml)
Experimental: Additional-experiments were also performed in rats maintained on a high fat diet regimen for three days.

G6 Pase = assay: Hepatic expression of G6 Pase by real-time PCR after central infusions; format: in vivo, Sprague-Dawley rats
Excerpt: (§4) Gene expression. Gluconeogenic enzymes. Quantitative analysis of gene expression was done using RT-PCR. Total RNA was isolated with Trizol (Invitrogen) and single-strand cDNA was synthesized with a kit provided by Invitrogen. Real-time PCR reactions and the primers for G6 Pase and PEPCK were done as described (Pocai et al., in press). The copy number of each transcript was derived from a standard curve of cloned target templates. Expression of each transcript was normalized to copy number for 18s ribosomal protein.

PEPCK = assay: Hepatic expression of PEPCK by real-time PCR after central infusions; format: in vivo, Sprague-Dawley rats
Excerpt: as §4

[3] = tested on: hypothalamic KATP channels; assay: ICV infusion of insulin, KATP channel blocker (glibenclamide) or both with pancreatic-insulin clamp (1 mU/kg.min) in rats; format: in vivo, Sprague-Dawley rats; settings: for Glucose: plasma; for rate of glucose infusion / glucose requirements: near basal circulating insulin levels
Excerpt: as §1, with “surgery.” for “surgery. One week before the pancreatic-insulin clamp protocols, rats received additional catheters in the right internal jugular and left carotid artery (FIG. 5) (Obici et al., 2003; Liu et al., 1998).”
(§5) In vivo studies. For the studies in rats, the metabolic experiments were performed ˜3 weeks after stereotaxic surgery following complete recovery from the operation (FIG. 5). All solutions were diluted with artificial cerebral spinal fluid (aCSF). […] Euglycemic-hyperinsulinemic clamps in conscious, unrestrained, catheterized mice were performed for 90 min as previously described (Obici et al., 2003; Liu et al., 1998).
as §3

[4] = target: T1, hypothalamic insulin receptors (Rattus norvegicus, UniProt P15127); assay: ICV insulin with pancreatic-insulin clamp in rats with hepatic vagotomy (HV), sham operation or vagal deafferentation; format: in vivo, Sprague-Dawley rats; settings: for Body wt.: ICV infusion; for 14C-PEP: liver
T1 construct: Paired groups of SHAM and HV rats received an ICV infusion of either insulin or vehicle; from tissue; host or cells: brain/hypothalamus of living Sprague-Dawley rats (sham, hepatic vagotomy or vagal deafferentation)
Excerpt: as §1, with “surgery.” for “surgery. One week before the pancreatic-insulin clamp protocols, rats received additional catheters in the right internal jugular and left carotid artery (FIG. 5) (Obici et al., 2003; Liu et al., 1998).”
as §5
(§6) Selective hepatic branch vagotomy. One week before the clamp procedure a subgroup of rats underwent selective hepatic vagotomy (HV) or sham operation (SHAM). Anatomical nerve transactions was verified in each rat at sacrifice by microscopic observation of the absence of vagal nerve fibers in between the two silk sutures that had been placed along the trunk at the time of transection (la Fleur et al., 2003).
Selective vagal deafferentation. Nerve transection was performed as previously described, according to the methods of Norgren and Smith (Norgren & Smith, 1998).
as §3

[5] = tested on: hepatic glucose production; assay: Pancreatic-hyperinsulinemic clamp (systemic insulin 3 mU/kg.min) in SHAM and HV rats; format: in vivo, Sprague-Dawley rats; settings: systemic hyperinsulinemia ~3-fold over basal
Experimental: Panel A is a schematic representation of the pancreatic-hyperinsulinemic clamp procedure. At t=120 an infusion of labeled glucose was initiated and maintained for the remaining 4 hours of the study and a pancreatic hyperinsulinemic clamp was initiated at t=240 min and lasted for 2 hours.
as §2, §6

[6] = ICV infusion, liver harvested at completion of infusions
[7] = Basal, before the clamp, ICV infusion

T1 sequence (P15127 27-759 limits assumed): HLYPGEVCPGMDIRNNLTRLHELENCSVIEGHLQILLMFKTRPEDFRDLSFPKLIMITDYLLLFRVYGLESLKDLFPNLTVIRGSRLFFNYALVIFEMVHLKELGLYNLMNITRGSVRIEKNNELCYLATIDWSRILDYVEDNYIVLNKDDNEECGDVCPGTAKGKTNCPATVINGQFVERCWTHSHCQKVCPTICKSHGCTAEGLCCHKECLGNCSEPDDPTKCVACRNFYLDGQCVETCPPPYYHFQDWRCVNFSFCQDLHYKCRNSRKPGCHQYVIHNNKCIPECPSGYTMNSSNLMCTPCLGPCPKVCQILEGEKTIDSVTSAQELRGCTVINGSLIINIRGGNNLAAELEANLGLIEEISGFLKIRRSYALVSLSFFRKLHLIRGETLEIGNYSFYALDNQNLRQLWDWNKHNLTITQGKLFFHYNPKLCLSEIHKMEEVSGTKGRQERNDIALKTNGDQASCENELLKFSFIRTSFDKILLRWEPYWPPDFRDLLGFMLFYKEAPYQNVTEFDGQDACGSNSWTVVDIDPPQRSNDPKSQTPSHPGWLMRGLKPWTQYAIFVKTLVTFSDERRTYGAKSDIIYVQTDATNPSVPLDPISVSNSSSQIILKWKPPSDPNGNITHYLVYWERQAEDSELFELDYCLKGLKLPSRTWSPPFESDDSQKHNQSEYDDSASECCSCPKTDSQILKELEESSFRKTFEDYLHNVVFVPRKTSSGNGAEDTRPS
T1 sequence (P15127 764-1383 partner limits assumed): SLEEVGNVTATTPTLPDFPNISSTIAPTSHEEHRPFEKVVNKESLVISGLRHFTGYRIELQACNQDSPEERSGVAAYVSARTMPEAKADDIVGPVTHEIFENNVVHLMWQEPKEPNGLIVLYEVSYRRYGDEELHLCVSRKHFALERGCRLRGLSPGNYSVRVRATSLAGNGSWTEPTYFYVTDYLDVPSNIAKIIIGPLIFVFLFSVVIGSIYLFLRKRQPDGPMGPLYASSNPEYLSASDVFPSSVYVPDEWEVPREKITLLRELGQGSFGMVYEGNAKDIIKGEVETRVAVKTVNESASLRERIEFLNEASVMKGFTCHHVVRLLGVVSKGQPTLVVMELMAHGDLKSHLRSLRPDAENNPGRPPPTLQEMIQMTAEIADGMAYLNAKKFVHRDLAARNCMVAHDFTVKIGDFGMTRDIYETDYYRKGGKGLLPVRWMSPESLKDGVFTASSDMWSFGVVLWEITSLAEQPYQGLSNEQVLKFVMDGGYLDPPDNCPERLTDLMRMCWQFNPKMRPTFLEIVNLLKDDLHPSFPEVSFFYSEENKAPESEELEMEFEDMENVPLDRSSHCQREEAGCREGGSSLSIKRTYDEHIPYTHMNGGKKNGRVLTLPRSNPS

Compound: CC1=NS(=O)(=O)c2cc(Cl)ccc2N1 [diazoxide]
- Glucose (central KATP channels; Basal, before the clamp, plasma, ICV infusion): 7.9 ± 0.4 mM
- gluconeogenesis (central KATP channels; ICV): marked inhibition of gluconeogenesis
- glucose cycling (central KATP channels; ICV): significantly reduced glucose cycling
- rate of glycogenolysis (central KATP channels; ICV): not significantly decreased
- blood glucose levels (central KATP channels; ICV (third cerebral ventricle), conscious rats): lowered blood glucose levels
- glucose infusion required to prevent hypoglycemia (central KATP channels; ICV, basal circulating insulin levels): glucose infusion was required to prevent hypoglycemia
- decrease in glucose production (GP) (central KATP channels; ICV, basal insulin levels (~20 μU/ml)): 45±4%
- flux through G6 Pase (central KATP channels; ICV, in vivo): decreased the flux through G6 Pase
- rate of glucose uptake (central KATP channels; ICV, pancreatic-insulin clamp): not significantly affected
- % Indirect (central KATP channels; indirect pathway (gluconeogenesis), ICV infusion, Table 6): 9.7 ± 4.1 %
- rate of glucose infusion required to prevent hypoglycemia [1]: significant increases
- blood glucose levels [1]: lowered blood glucose levels
- glucose production (GP) [1]: marked suppression of GP
- inhibition of glucose production ([2]; ICV or intrahypothalamic infusion): ~45%
- liver G6 Pase mRNA levels (G6 Pase; [6]): markedly decreased
- liver PEPCK mRNA levels (PEPCK; [6]): markedly decreased

Compound: COc1ccc(Cl)cc1C(=O)NCCc1ccc(S(=O)(=O)NC(=O)NC2CCCCC2)cc1 [glibenclamide, 5-Chloro-N-[2-[4-(3-cyclohexylureidosulfonyl)phenyl]ethyl]-2-methoxybenzamide, reference compound]
- Glucose [3, 7]: 8.2 ± 0.5 mM
- Glucose ([3]; Clamp steady state, ICV infusion): 8.2 ± 0.9 mM
- rate of glucose infusion / glucose requirements ([3]; ICV): did not modify the rate of glucose infusion
- glucose production (GP) ([3]; ICV, pancreatic clamp): did not per se affect GP
- % Indirect ([3]; indirect pathway (gluconeogenesis), ICV infusion, Table 7): 32.4 ± 3.0%

Compound: insulin
- rate of glucose infusion required to prevent hypoglycemia [1]: significant increases
- blood glucose levels [1]: reproduced the potent effects of ICV insulin or diazoxide
- glucose production (GP) [1]: reproduced the potent effects of ICV insulin or diazoxide
- Glucose [3, 7]: 7.8 ± 0.3 mM
- flux through G6 Pase ([3]; ICV): markedly decreased the flux through G6 Pase
- gluconeogenesis ([3]; ICV): marked inhibition of gluconeogenesis
- rate of glycogenolysis ([3]; ICV): not significantly decreased
- blood glucose levels ([3]; ICV (third cerebral ventricle)): lowers blood glucose levels
- decrease in glucose production (GP) ([3]; ICV, basal and equal insulin levels): 52±8%
- rate of glucose infusion / glucose requirements ([3]; ICV): glucose infusion was required to prevent hypoglycemia
- Body wt. ([4]; HV, Basal): 295 ± 4 g
- FFA ([4]; HV, Basal, plasma): 0.5 ± 0.2 mM
- Glucose ([4]; HV, Basal, plasma): 7.9 ± 0.5 mM
- FFA ([4]; HV, Clamp steady state, plasma): 0.5 ± 0.3 mM
- Glucose ([4]; HV, Clamp steady state, plasma): 8.0 ± 0.6 mM
- Insulin ([4]; HV, Clamp steady state, plasma): 0.9 ± 0.3 ng/mL
- hepatic glucose fluxes ([4]; HV, ICV): failed to affect hepatic glucose fluxes
- decrease in glucose production (GP) ([4]; HV, ICV, basal and equal insulin levels): not in HV rats
- 3H-Glucose Plasma SA ([4]; HV, Table 8): 52.4 ± 3.5 dpm/nmol
- % Indirect ([4]; HV, indirect pathway (gluconeogenesis), Table 8): 34.4 ± 9.7%
- 14C-PEP ([4]; HV, Table 8): 5.5 ± 1.4 dpm/nmol
- rate of glucose uptake ([4]; ICV, either SHAM or HV rats): not significantly affected
- flux through G6 Pase ([4]; SHAM, ICV): markedly decreased the flux through G6 Pase
- gluconeogenesis ([4]; SHAM, ICV): marked inhibition of gluconeogenesis
- glucose infusion required to prevent hypoglycemia ([4]; SHAM, ICV, ~basal circulating insulin): glucose infusion was required to prevent hypoglycemia
- 3H-Glucose Plasma SA ([4]; SHAM, Table 8): 43.1 ± 1.9 dpm/nmol
- 3H-UDP-glucose Liver SA ([4]; SHAM, Table 8): 5.5 ± 0.5 dpm/nmol
- Direct (%) ([4]; SHAM, direct pathway, Table 8): 12.1 ± 0.71%
- 14C-PEP ([4]; SHAM, Table 8): 10.9 ± 0.6 dpm/nmol
- Body wt. ([4]; Sham, Basal): 310 ± 5 g
- FFA ([4]; Sham, Basal, plasma): 0.5 ± 0.3 mM
- Glucose ([4]; Sham, Basal, plasma): 7.9 ± 0.3 mM
- FFA ([4]; Sham, Clamp steady state, plasma): 0.4 ± 0.1 mM
- ability to lower blood glucose levels and to suppress GP ([4]; rats with selective vagal deafferentation, ICV): did not alter
- suppression of GP ([5]; HV): 38±11%
- suppression of GP ([5]; SHAM): 80±8%
- inhibition of glucose production ([2]; central administration): failed to significantly inhibit glucose production
- liver G6 Pase mRNA levels (G6 Pase; [6]): marked KATP channels dependent decreases
- liver G6 Pase mRNA levels (G6 Pase; SHAM, ICV): marked decrease
- liver PEPCK mRNA levels (PEPCK; [6]): marked KATP channels dependent decreases
- liver PEPCK mRNA levels (PEPCK; SHAM, ICV): marked decrease
